Results: US11795150B2, “Synthesis of triethylenetetramines” (Philera New Zealand Limited, priority 2004, dated 2023)

conditions: 80° C. for nine days

Compound	Changes in IR, 1H-NMR and DSC after heat exposure
NCCNCCNCCN.O=C(O)/C=C\C(=O)O.O=C(O)/C=C\C(=O)O.O=C(O)/C=C\C(=O)O.O=C(O)/C=C\C(=O)O [Maleic, triethylenetetramine tetramaleate]	no changes
NCCNCCNCCN.O=C(O)CCC(=O)O.O=C(O)CCC(=O)O [Succinic, triethylenetetramine disuccinate]	no changes
NCCNCCNCCN.O=C(O)/C=C/C(=O)O.O=C(O)/C=C/C(=O)O.O=C(O)/C=C/C(=O)O.O=C(O)/C=C/C(=O)O [Fumaric, triethylenetetramine tetrafumarate]	no changes
